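In this assay, cells in 96-well plates receive the compound at five concentrations for 48 hours. Endpoints are linearly interpolated between the surrounding concentrations. Abbreviation: GI50, concentration required for 50% inhibition of growth. The concentration for full growth arrest is given as TGI.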
Tests used:
Test in all cases: NCI-60 cell line screen, 48 h
[1] = tested on: MCF7 breast
[2] = tested on: HS 578T breast
[3] = tested on: HL-60(TB) leukemia
[4] = tested on: OVCAR-8 ovarian
[5] = tested on: OVCAR-3 ovarian
[6] = tested on: SF-295 CNS
[7] = tested on: ACHN renal
[8] = tested on: DU-145 prostate
[9] = tested on: LOX IMVI melanoma
[10] = tested on: SW-620 colon
[11] = tested on: UO-31 renal
[12] = tested on: COLO 205 colon
[13] = tested on: UACC-62 melanoma
[14] = tested on: HCC-2998 colon
[15] = tested on: UACC-257 melanoma
[16] = tested on: K-562 leukemia
[17] = tested on: SN12C renal
[18] = tested on: SR leukemia
[19] = tested on: BT-549 breast
[20] = tested on: SF-539 CNS
[21] = tested on: NCI/ADR-RES ovarian
[22] = tested on: HOP-62 NSCLC
[23] = tested on: CCRF-CEM leukemia
[24] = tested on: MDA-MB-231 breast
[25] = tested on: NCI-H522 lung
[26] = tested on: A498 renal
[27] = tested on: HCT-116 colon
[28] = tested on: CAKI-1 renal
[29] = tested on: SK-MEL-5 melanoma
[30] = tested on: SK-OV-3 ovarian
[31] = tested on: MOLT-4 leukemia
[32] = tested on: SNB-75 CNS
[33] = tested on: OVCAR-5 ovarian
[34] = tested on: SNB-19 CNS
[35] = tested on: PC-3 prostate
[36] = tested on: OVCAR-4 ovarian
[37] = tested on: MALME-3M melanoma
[38] = tested on: IGROV1 ovarian
[39] = tested on: M14 melanoma
[40] = tested on: RXF 393 renal
[41] = tested on: KM12 colon
[42] = tested on: U251 CNS
[43] = tested on: 786-0 renal
[44] = tested on: NCI-H226 lung
[45] = tested on: HCT-15 colon
[46] = tested on: HOP-92 NSCLC
[47] = tested on: SK-MEL-2 melanoma
[48] = tested on: NCI-H460 lung
[49] = tested on: SF-268 CNS
[50] = tested on: HT29 colon
[51] = tested on: SK-MEL-28 melanoma
[52] = tested on: A549 NSCLC
[53] = tested on: RPMI-8226 leukemia
[54] = tested on: MDA-MB-435
[55] = tested on: T-47D breast

Q: How did the GI50 [1] turn out when `O=C1C(Br)=CC2C1C1C3CCC3C2(Br)C12OCCO2` (stereo not given) was run?
A: Its GI50 is 1.98 µM.

Q: And the TGI [1]?
A: Its TGI is 12.8 µM.

Q: And the GI50 [2]?
A: The GI50 was 3.46 µM.

Q: What about the TGI [2] of the same molecule?
A: The TGI was 71 µM.

Q: And the GI50 [3]?
A: Its GI50 is 2.2 µM.

Q: What about the TGI [3] of the same molecule?
A: The TGI was 5.66 µM.

Q: What about the GI50 [4] of the same molecule?
A: The GI50 was 2.8 µM.

Q: And the TGI [4]?
A: The TGI was 12.3 µM.

Q: What about the GI50 [5] of the same molecule?
A: Its GI50 is 3.24 µM.

Q: What about the TGI [5] of the same molecule?
A: The TGI was 9.88 µM.

Q: And the GI50 [6]?
A: The GI50 was 9.69 µM.

Q: And the TGI [6]?
A: Its TGI is 27.5 µM.

Q: What about the GI50 [7] of the same molecule?
A: Its GI50 is 2.94 µM.

Q: What about the TGI [7] of the same molecule?
A: The TGI was 12.2 µM.

Q: What about the GI50 [8] of the same molecule?
A: Its GI50 is 3.22 µM.

Q: What about the TGI [8] of the same molecule?
A: The TGI was 13.8 µM.

Q: And the GI50 [9]?
A: Its GI50 is 1.21 µM.

Q: What about the TGI [9] of the same molecule?
A: The TGI was 3.74 µM.

Q: What about the GI50 [10] of the same molecule?
A: The GI50 was 3.12 µM.

Q: And the TGI [10]?
A: Its TGI is 11.6 µM.

Q: What about the GI50 [11] of the same molecule?
A: Its GI50 is 3.4 µM.

Q: And the TGI [11]?
A: Its TGI is 13.4 µM.

Q: And the GI50 [12]?
A: The GI50 was 3.35 µM.

Q: What about the TGI [12] of the same molecule?
A: The TGI was 10.9 µM.

Q: And the GI50 [13]?
A: Its GI50 is 2.87 µM.

Q: And the TGI [13]?
A: The TGI was 14.1 µM.

Q: What about the GI50 [14] of the same molecule?
A: Its GI50 is 6.6 µM.

Q: What about the TGI [14] of the same molecule?
A: Its TGI is 20.5 µM.

Q: And the GI50 [15]?
A: Its GI50 is 2.14 µM.

Q: What about the TGI [15] of the same molecule?
A: Its TGI is 12.5 µM.

Q: What about the GI50 [16] of the same molecule?
A: Its GI50 is 2.98 µM.

Q: What about the TGI [16] of the same molecule?
A: The TGI was 13 µM.

Q: What about the GI50 [17] of the same molecule?
A: Its GI50 is 3.08 µM.

Q: And the TGI [17]?
A: Its TGI is 15.3 µM.

Q: What about the GI50 [18] of the same molecule?
A: The GI50 was 0.721 µM.

Q: What about the TGI [18] of the same molecule?
A: Its TGI is 6.57 µM.

Q: What about the GI50 [19] of the same molecule?
A: The GI50 was 5.03 µM.

Q: What about the TGI [19] of the same molecule?
A: The TGI was 18.1 µM.

Q: What about the GI50 [20] of the same molecule?
A: Its GI50 is 2.15 µM.

Q: And the TGI [20]?
A: The TGI was 5.99 µM.

Q: And the GI50 [21]?
A: The GI50 was 4.84 µM.

Q: What about the TGI [21] of the same molecule?
A: Its TGI is 41 µM.

Q: What about the GI50 [22] of the same molecule?
A: The GI50 was 4.25 µM.

Q: What about the TGI [22] of the same molecule?
A: Its TGI is 16.5 µM.

Q: What about the GI50 [23] of the same molecule?
A: Its GI50 is 1.82 µM.

Q: What about the TGI [23] of the same molecule?
A: The TGI was 10.5 µM.

Q: And the GI50 [24]?
A: Its GI50 is 1.84 µM.

Q: And the TGI [24]?
A: Its TGI is 11.4 µM.

Q: What about the GI50 [25] of the same molecule?
A: The GI50 was 1.82 µM.

Q: And the TGI [25]?
A: Its TGI is 4.73 µM.

Q: What about the GI50 [26] of the same molecule?
A: The GI50 was 2.99 µM.

Q: And the TGI [26]?
A: Its TGI is 11.4 µM.

Q: What about the GI50 [27] of the same molecule?
A: Its GI50 is 2.08 µM.

Q: And the TGI [27]?
A: Its TGI is 10.3 µM.

Q: And the GI50 [28]?
A: Its GI50 is 4.1 µM.

Q: And the TGI [28]?
A: The TGI was 17.6 µM.

Q: And the GI50 [29]?
A: Its GI50 is 3.19 µM.

Q: What about the TGI [29] of the same molecule?
A: Its TGI is 14.4 µM.

Q: And the GI50 [30]?
A: The GI50 was 4.3 µM.

Q: What about the TGI [30] of the same molecule?
A: Its TGI is 15.3 µM.

Q: What about the GI50 [31] of the same molecule?
A: The GI50 was 3.64 µM.

Q: And the TGI [31]?
A: The TGI was 10.8 µM.

Q: What about the GI50 [32] of the same molecule?
A: Its GI50 is 3.42 µM.

Q: And the TGI [32]?
A: Its TGI is 34.7 µM.

Q: And the GI50 [33]?
A: The GI50 was 2.47 µM.

Q: What about the TGI [33] of the same molecule?
A: The TGI was 8.91 µM.

Q: And the GI50 [34]?
A: The GI50 was 9.65 µM.

Q: What about the TGI [34] of the same molecule?
A: Its TGI is 23 µM.

Q: What about the GI50 [35] of the same molecule?
A: Its GI50 is 3.47 µM.

Q: What about the TGI [35] of the same molecule?
A: The TGI was 19 µM.

Q: What about the GI50 [36] of the same molecule?
A: The GI50 was 2.79 µM.

Q: And the TGI [36]?
A: Its TGI is 14.7 µM.

Q: And the GI50 [37]?
A: The GI50 was 4.45 µM.

Q: And the TGI [37]?
A: Its TGI is 21.3 µM.

Q: What about the GI50 [38] of the same molecule?
A: The GI50 was 2.89 µM.

Q: And the TGI [38]?
A: Its TGI is 12.7 µM.

Q: What about the GI50 [39] of the same molecule?
A: The GI50 was 4.45 µM.

Q: And the TGI [39]?
A: The TGI was 19.9 µM.

Q: What about the GI50 [40] of the same molecule?
A: Its GI50 is 2.64 µM.

Q: What about the TGI [40] of the same molecule?
A: Its TGI is 11.6 µM.

Q: And the GI50 [41]?
A: Its GI50 is 2.39 µM.

Q: What about the TGI [41] of the same molecule?
A: Its TGI is 8.4 µM.

Q: What about the GI50 [42] of the same molecule?
A: Its GI50 is 2.88 µM.

Q: And the TGI [42]?
A: Its TGI is 13 µM.

Q: What about the GI50 [43] of the same molecule?
A: The GI50 was 4.32 µM.

Q: And the TGI [43]?
A: Its TGI is 16 µM.

Q: And the GI50 [44]?
A: The GI50 was 3.55 µM.

Q: What about the TGI [44] of the same molecule?
A: The TGI was 20.4 µM.

Q: And the GI50 [45]?
A: The GI50 was 1.22 µM.

Q: What about the TGI [45] of the same molecule?
A: Its TGI is 3.49 µM.

Q: And the GI50 [46]?
A: Its GI50 is 5.08 µM.

Q: What about the TGI [46] of the same molecule?
A: Its TGI is 21.8 µM.

Q: What about the GI50 [47] of the same molecule?
A: Its GI50 is 3.17 µM.

Q: What about the TGI [47] of the same molecule?
A: The TGI was 9.09 µM.

Q: And the GI50 [48]?
A: The GI50 was 2.08 µM.

Q: What about the TGI [48] of the same molecule?
A: The TGI was 10.2 µM.

Q: And the GI50 [49]?
A: Its GI50 is 2.5 µM.

Q: What about the TGI [49] of the same molecule?
A: Its TGI is 15.5 µM.

Q: And the GI50 [50]?
A: Its GI50 is 2.75 µM.

Q: And the TGI [50]?
A: The TGI was 10.3 µM.

Q: What about the GI50 [51] of the same molecule?
A: Its GI50 is 3.98 µM.

Q: And the TGI [51]?
A: Its TGI is 18 µM.

Q: What about the GI50 [52] of the same molecule?
A: Its GI50 is 2.29 µM.

Q: And the TGI [52]?
A: Its TGI is 10.9 µM.

Q: And the GI50 [53]?
A: Its GI50 is 1.71 µM.

Q: What about the TGI [53] of the same molecule?
A: Its TGI is 5.76 µM.

Q: And the GI50 [54]?
A: Its GI50 is 2.93 µM.

Q: And the TGI [54]?
A: Its TGI is 13.4 µM.

Q: What about the GI50 [55] of the same molecule?
A: The GI50 was 2.48 µM.

Q: And the TGI [55]?
A: Its TGI is 12.9 µM.

— PubChem BioAssay (NCI)
